Series [1] is described as follows: Inhibition of Pseudomonas aeruginosa ATP synthase expressed in Escherichia coli DK8/pASH20 inverted membrane vesicles by luciferin/luciferase luminescence assay. The class given is cell membranes, Membrane vesicle.
A short description of series [2]: Inhibition of Pseudomonas aeruginosa 9027 electron transport chain in inverted membrane vesicles assessed as fluorescence quenching using amino-6-chloro-2-methoxyacridine. It counts as cell membranes.
Series [3] can be described thus: Selectivity ratio of IC50 for Pseudomonas aeruginosa 9027 electron transport chain to IC50 for Pseudomonas aeruginosa ATP synthase. The class given is toxicity.
Series [4] in a line: Inhibition of Escherichia coli electron transport chain in inverted membrane vesicles. The class given is cell membranes.
Series [5] has as its system Pseudomonas aeruginosa. In words: Antibacterial activity against Pseudomonas aeruginosa ATCC BAA-2109 assessed as growth inhibition incubated for 12 to 15 hrs by broth microdilution method. It counts as functional. Particulars: time 12-15 hrs. In general terms: In broth dilution the organism is exposed to a series of concentrations in liquid medium.
The test system of series [6] is Pseudomonas aeruginosa. Nature of the series: Antibacterial activity against Pseudomonas aeruginosa ATCC BAA-2108 assessed as growth inhibition incubated for 12 to 15 hrs by broth microdilution method. Particulars: time 12-15 hrs. The class given is functional.
The test system of series [7] is Pseudomonas aeruginosa. Nature of the series: Antibacterial activity against Pseudomonas aeruginosa efflux knockout GKCW120 (Pdelta6) assessed as growth inhibition incubated for 12 to 15 hrs by broth microdilution method. It counts as functional. Particulars: time 12-15 hrs.
Series [8] relates to Pseudomonas aeruginosa. Nature of the series: Antibacterial activity against Pseudomonas aeruginosa ATCC BAA-2110 assessed as growth inhibition incubated for 12 to 15 hrs by broth microdilution method. To be noted: time 12-15 hrs. It counts as functional.
In series [9] the test system is Pseudomonas aeruginosa. In words: Antibacterial activity against Pseudomonas aeruginosa 9027 assessed as growth inhibition incubated for 12 to 15 hrs by broth microdilution method. It counts as functional. To be noted: time 12-15 hrs.
Series [10] is described as follows: Solubility of the compound in antibacterial activity assay medium. It counts as physicochemical.

Experimental findings from ChEMBL document CHEMBL5357010, “Amine Basicity of Quinoline ATP Synthase Inhibitors Drives Antibacterial Activity against Pseudomonas aeruginosa” (ACS Med Chem Lett, 2024) are described below.

In brackets after ≈: the same amount, converted by molar mass. Bounds are passed on as bounds.

In series [1], `CSc1nc2ccccc2cc1CNCCc1cccn1C` registered an IC50 of 5 µg/mL (≈ 16.1 µM).

In series [1], `Cn1cccc1CCNCc1cc2ccccc2nc1SCc1ccccc1` displayed an IC50 of 4 µg/mL (≈ 10.3 µM).

Take `c1ccc(CSc2nc3ccccc3cc2CNCCC2CCN(C3CCCC3)CC2)cc1`: the IC50 in [2] is 14 µg/mL (≈ 30.5 µM); in series [1], 1 µg/mL (≈ 2.18 µM). Moreover, in series [3], the “Ratio IC50” value was 14.

As for `c1ccc(CSc2nc3ccccc3cc2CNCCc2cnc[nH]2)cc1`, the IC50 in series [2] was 7 µg/mL (≈ 18.7 µM); in series [1], 2 µg/mL (≈ 5.34 µM); in series [4], 14 µg/mL (≈ 37.4 µM).

The molecule `CSc1nc2ccccc2cc1CNCCc1nc(C)cc(C)n1` came in with an IC50 in series [1] of 67 µg/mL (≈ 198 µM).

In series [1], `CSc1nc2ccccc2cc1CNCCCCCN(C)C` displayed an IC50 of 19 µg/mL (≈ 59.8 µM).

In turn, `CSc1nc2ccccc2cc1CNCCC1CCN(C2CCCC2)CC1` registered a concentration for half-maximal inhibition (IC50) in series [1] of 21 µg/mL (≈ 54.7 µM).

On to `CSc1nc2ccccc2cc1CNCCc1cnc[nH]1`, for which, in series [1], the IC50 was determined as 16 µg/mL (≈ 53.6 µM).

With `CN(C)CCCCNCc1cc2ccccc2nc1SCc1ccccc1`, the IC50 in [2] amounted to 26 µg/mL (≈ 68.5 µM); in [1] it was 1 µg/mL (≈ 2.63 µM). Moreover, in series [3], the “Ratio IC50” value came to 26.

As for `CSc1nc2ccccc2cc1CNCc1ccc(CN(C)C)cc1`, the “MIC>85” value in series [5] is 256 µg/mL (≈ 728 µM); in series [6] it was 128 µg/mL (≈ 364 µM); in [7], 64 µg/mL (≈ 182 µM); in series [8] it was >256 µg/mL; in series [9], >256 µg/mL. Besides, the IC50 in series [2] amounted to 29 µg/mL (≈ 82.5 µM); in [1], 30 µg/mL (≈ 85.3 µM). The “Ratio IC50” value in series [3] was determined as 1.

`CSc1nc2ccccc2cc1CNCCCCN(C)C` displayed an IC50 in [1] of 68 µg/mL (≈ 224 µM).

Regarding GENTAMICIN, the MIC>85 was 2 µg/mL in series [5]; 16 µg/mL in series [6]; > 4 µg/mL in [7]; 4 µg/mL in series [8]; 2 µg/mL in [9].

With `CN(C)c1ccc(CNCc2cc3ccccc3nc2SCc2ccccc2)cc1`, the solubility in series [10] was > 16 µg/mL.

Turning to `CN(C)CCCNCc1cc2ccccc2nc1SCc1ccccc1`, the IC50 in series [2] is 44 µg/mL (≈ 120 µM); in [1] it was 6 µg/mL (≈ 16.4 µM). The “Ratio IC50” value in series [3] is given as 7.

The molecule `CSc1nc2ccccc2cc1CNCc1ccc(N(C)C)cc1` yielded an IC50 in [1] of 5 µg/mL (≈ 14.8 µM).

`CN(C)CCCCCNCc1cc2ccccc2nc1SCc1ccccc1`: the figures for the IC50 in [2] and in series [1] were 57 µg/mL (≈ 145 µM) and 2 µg/mL (≈ 5.08 µM), respectively. Further, the “Ratio IC50” value in series [3] was found to be 28.

Molecule `CCN1CCC(CCNCc2cc3ccccc3nc2SC)CC1` came in with a half-maximal inhibitory concentration (IC50) in series [1] of 39 µg/mL (≈ 114 µM).

With `CSc1nc2ccccc2cc1CNCCCN(C)C`, the IC50 in series [1] stood at 43 µg/mL (≈ 149 µM).

As for `CCN1CCC(CCNCc2cc3ccccc3nc2SCc2ccccc2)CC1`, the IC50 in series [2] is 26 µg/mL (≈ 62 µM); in [1] it was 1 µg/mL (≈ 2.38 µM). For the same molecule, the “Ratio IC50” value in [3] was 26.

The molecule `Cc1cc(C)nc(CCNCc2cc3ccccc3nc2SCc2ccccc2)n1` yielded an IC50 in [1] of 3 µg/mL (≈ 7.24 µM).

For the molecule `CN(C)Cc1ccc(CNCc2cc3ccccc3nc2SCc2ccccc2)cc1`, the “MIC>85” value in series [5] is >128 µg/mL; in [6] it was 64 µg/mL (≈ 150 µM); in series [7], 16 µg/mL (≈ 37.4 µM); in [8], >128 µg/mL; in series [9], >128 µg/mL. In addition, the values for the IC50 in series [2] and in series [1] were 27 µg/mL (≈ 63.1 µM) and 2.3 µg/mL (≈ 5.38 µM), respectively. The “Ratio IC50” value in series [3] is on record as 12.

Usually IC50 stands for the concentration that gives 50% inhibition. Broadly, the solubility is the dissolved amount per volume that the medium holds. Read a high solubility as much dissolved substance.
